According to patent publication US6737511B1 (priority 1999, dated 2004):

Tests used:
HeLa cells = format: cell-based, human; details: chloroquine 10 μM
Cos-7 cells = format: cell-based, monkey
J774 cells = format: cell-based

CCN(CC)CCCC(C)Nc1ccnc2cc(Cl)ccc12 (stereo not shown) [Chloroquine] was tested. Which “effect on Bcl-xL-DTR inhibition of poliovirus-induced cell death” value (HeLa cells) did it give?
The value was “did not block the activity of Bcl-xL-DTR to inhibit poliovirus-induced cell death”.

Which “Cell death (%)” value (Cos-7 cells) does the source give for CN[C@@H]1C[C@H]2O[C@@](C)([C@@H]1OC)n1c3ccccc3c3c4c(c5c6ccccc6n2c5c31)C(=O)NC4 [STS, staurosporine] here?
The value was 24%.

What about the “apoptosis induced in J774 cells” value (J774 cells) of the same compound?
Its value is “died by apoptosis over the following 36 hours”.

Which “effect on anti-apoptosis activity of Bcl-xL-DTR” value (Cos-7 cells) does the source give for brefeldin A here?
The value was “does block the anti-apoptosis activity of Bcl-xL-DTR”.
